Holding throughout (assay): Suspension test of biocide with or without perlite, 1 minute contact
The subject of test [1] is Staphylococcus aureus ATCC 6538.
In test [2] the test system is Pseudomonas aeruginosa ATCC 15442.
The subject of test [3] is Aspergillus brasiliensis ATCC 16404.

Turning to `O=c1nc([O-])n(Cl)c(=O)n1Cl.[Na+]` [Sodium Dichloroisocyanurate, sodium dichloroisocyanurate], the results for the “R reduction in viability” value in test [1], in test [2] and in test [3] were over 6.23 Log 10, 3.71 Log 10 and 2.84 Log 10, respectively. Also, the Vc viable count in test [3] (dilution N, duplicate plates) was >165; >165 cfu.
Take `CC1(C)C(=O)N(Cl)C(=O)N1Br` [BDCMH]: the “R reduction in viability” value in test [1] was 1.92 Log 10; in test [2] it was 1.00 Log 10; in test [3], −0.01 Log 10. Moreover, the Vc viable count is on record as >330; >330 cfu in test [1] (dilution −1, duplicate plates); >330; >330 cfu in test [1] (dilution −2, duplicate plates); >330; >330 cfu in test [2] (dilution −1, duplicate plates); >330; >330 cfu in test [2] (dilution −2, duplicate plates); >330; >330 cfu in test [2] (dilution −3, duplicate plates); >165; >165 cfu in test [3] (dilution N, duplicate plates). Further, the Vc viable count was >165; >165 cfu in test [3] (dilution −1, duplicate plates); >165; >165 cfu in test [3] (dilution −2, duplicate plates); >165; >165 cfu in test [3] (dilution −3, duplicate plates).

The record behind these values is US12213480B2, “Biocidal formulation” (For Spills Ltd., priority 2018, dated 2025).
